Data taken from publication PMC5218480 (PLoS ONE, 2017).

Tested on: MV-4-11 cells
Test: Gene expression microarray analysis (Affymetrix PrimeView) and GSEA
Format: cell-based, human
Design: RFU PODN (11730768_x_at) / Fold change /veh PODN (11730768_x_at) / RFU LINC00158 (11744669_a_at) / Fold change /veh LINC00158 (11744669_a_at) / RFU DUSP10 (11751237_a_at) / Fold change /veh DUSP10 (11751237_a_at) / RFU ID3 (11757404_x_at) / Fold change /veh ID3 (11757404_x_at) / RFU PLEKHG5 (11737974_s_at) / Fold change /veh PLEKHG5 (11737974_s_at) / RFU LRRC4B (11730491_at) / Fold change /veh LRRC4B (11730491_at) / RFU GIMAP4 (11747438_a_at) / Fold change /veh GIMAP4 (11747438_a_at) / RFU KRT8 (11758183_x_at) / Fold change /veh KRT8 (11758183_x_at) / RFU CNN1 (11734310_a_at) / Fold change /veh CNN1 (11734310_a_at) / RFU VPS37D (11726825_at) / Fold change /veh VPS37D (11726825_at) / RFU C10orf10 (11716522_x_at) / Fold change /veh C10orf10 (11716522_x_at) / RFU KIR2DL2 /// KIR2DL4 /// KIR2DL5A /// KIR2DL5B /// KIR2DS1 /// KIR2DS2 /// KIR2DS3 /// KIR2DS4 /// KIR3DL3 /// KIR3DL3 /// KIR3DS1 (11738374_at) / Fold change /veh KIR2DL2 /// KIR2DL4 /// KIR2DL5A /// KIR2DL5B /// KIR2DS1 /// KIR2DS2 /// KIR2DS3 /// KIR2DS4 /// KIR3DL3 /// KIR3DL3 /// KIR3DS1 (11738374_at) / RFU C1QL1 (11718748_at) / Fold change /veh C1QL1 (11718748_at) / RFU TMPRSS4 (11747572_a_at) / Fold change /veh TMPRSS4 (11747572_a_at) / RFU HAMP (11756126_x_at) / Fold change /veh HAMP (11756126_x_at) / RFU RNFT2 (11725882_a_at) / Fold change /veh RNFT2 (11725882_a_at) / RFU NR4A2 (11747474_a_at) / Fold change /veh NR4A2 (11747474_a_at) / RFU ABCC12 (11746883_a_at) / Fold change /veh ABCC12 (11746883_a_at) / RFU TMEM136 (11760407_x_at) / Fold change /veh TMEM136 (11760407_x_at) / RFU CLDN22 /// WWC2 (11732394_at) / Fold change /veh CLDN22 /// WWC2 (11732394_at) / RFU HLA-DPB1 (11760878_x_at) / Fold change /veh HLA-DPB1 (11760878_x_at) / RFU SPINT1 (11716480_a_at) / Fold change /veh SPINT1 (11716480_a_at) / RFU GAP43 (11754022_s_at) / Fold change /veh GAP43 (11754022_s_at) / RFU A4GNT (11735810_at) / Fold change /veh A4GNT (11735810_at) / RFU PRB3 (11715151_x_at) / Fold change /veh PRB3 (11715151_x_at) / RFU TUBB4B (11761932_at) / Fold change /veh TUBB4B (11761932_at) / RFU CAPN14 (11732068_a_at) / Fold change /veh CAPN14 (11732068_a_at) / RFU TMCC2 (11721928_a_at) / Fold change /veh TMCC2 (11721928_a_at) / RFU IRGQ (11745062_a_at) / Fold change /veh IRGQ (11745062_a_at) / RFU FAM174B (11720279_a_at) / Fold change /veh FAM174B (11720279_a_at) / RFU TMPRSS4 (11748680_a_at) / Fold change /veh TMPRSS4 (11748680_a_at) / RFU FAM212B (11763350_a_at) / Fold change /veh FAM212B (11763350_a_at) / RFU PLEKHG5 (11743358_a_at) / Fold change /veh PLEKHG5 (11743358_a_at) / RFU ZSCAN30 (11745921_a_at) / Fold change /veh ZSCAN30 (11745921_a_at) / RFU CMKLR1 (11741424_a_at) / Fold change /veh CMKLR1 (11741424_a_at) / RFU LOC101060620 /// MAPK8IP1 (11723275_at) / Fold change /veh LOC101060620 /// MAPK8IP1 (11723275_at) / RFU SPTSSB (11747773_x_at) / Fold change /veh SPTSSB (11747773_x_at) / RFU PRSS12 (11739890_at) / Fold change /veh PRSS12 (11739890_at) / RFU BIN1 (11741810_x_at) / Fold change /veh BIN1 (11741810_x_at) / RFU WNT11 (11732464_a_at) / Fold change /veh WNT11 (11732464_a_at) / RFU C10orf10 (11716521_a_at) / Fold change /veh C10orf10 (11716521_a_at) / RFU C5orf56 (11738089_at) / Fold change /veh C5orf56 (11738089_at) / RFU CYB561 (11721691_x_at) / Fold change /veh CYB561 (11721691_x_at) / RFU ANKRD19P (11752326_a_at) / Fold change /veh ANKRD19P (11752326_a_at) / RFU OR2T12 /// OR2T33 /// OR2T8 (11738714_s_at) / Fold change /veh OR2T12 /// OR2T33 /// OR2T8 (11738714_s_at) / RFU VCAN (11748164_a_at) / Fold change /veh VCAN (11748164_a_at) / RFU JSRP1 (11732532_at) / Fold change /veh JSRP1 (11732532_at) / RFU KRTAP10-11 (11738290_x_at) / Fold change /veh KRTAP10-11 (11738290_x_at) / RFU MYO3A (11730013_a_at) / Fold change /veh MYO3A (11730013_a_at) / RFU EBF3 (11725865_a_at) / Fold change /veh EBF3 (11725865_a_at) / RFU CAMK2N1 (11719241_x_at) / Fold change /veh CAMK2N1 (11719241_x_at) / RFU C5orf56 (11738088_a_at) / Fold change /veh C5orf56 (11738088_a_at) / RFU OLFML3 (11715873_a_at) / Fold change /veh OLFML3 (11715873_a_at) / RFU LOC100653217 /// NTM (11731650_a_at) / Fold change /veh LOC100653217 /// NTM (11731650_a_at) / RFU MAPK11 (11762145_a_at) / Fold change /veh MAPK11 (11762145_a_at) / RFU FIZ1 (11724087_x_at) / Fold change /veh FIZ1 (11724087_x_at) / RFU OASL (11726364_x_at) / Fold change /veh OASL (11726364_x_at) / RFU SOX15 (11748057_x_at) / Fold change /veh SOX15 (11748057_x_at) / RFU CD79A (11719716_a_at) / Fold change /veh CD79A (11719716_a_at) / RFU HIST1H1D (11736915_at) / Fold change /veh HIST1H1D (11736915_at) / RFU CASKIN2 (11723855_a_at) / Fold change /veh CASKIN2 (11723855_a_at) / RFU LOC730098 (11760151_x_at) / Fold change /veh LOC730098 (11760151_x_at) / RFU OR4N2 (11742367_at) / Fold change /veh OR4N2 (11742367_at) / RFU PRRT2 (11749266_a_at) / Fold change /veh PRRT2 (11749266_a_at) / RFU SNX32 (11753110_a_at) / Fold change /veh SNX32 (11753110_a_at) / RFU CDHR5 (11726645_a_at) / Fold change /veh CDHR5 (11726645_a_at) / RFU RCAN1 (11760418_a_at) / Fold change /veh RCAN1 (11760418_a_at) / RFU FAM167A (11723789_a_at) / Fold change /veh FAM167A (11723789_a_at) / RFU FAM26E (11764081_at) / Fold change /veh FAM26E (11764081_at) / RFU ISYNA1 (11749810_s_at) / Fold change /veh ISYNA1 (11749810_s_at) / RFU ACY1 (11761880_at) / Fold change /veh ACY1 (11761880_at) / RFU 11764098_at / Fold change /veh 11764098_at / RFU SAMD14 (11745864_x_at) / Fold change /veh SAMD14 (11745864_x_at) / RFU NPB (11741838_a_at) / Fold change /veh NPB (11741838_a_at) / RFU TMPRSS6 (11731388_a_at) / Fold change /veh TMPRSS6 (11731388_a_at) / RFU KRTAP10-2 (11738614_at) / Fold change /veh KRTAP10-2 (11738614_at) / RFU ARHGAP8 /// PRR5-ARHGAP8 (11727945_x_at) / Fold change /veh ARHGAP8 /// PRR5-ARHGAP8 (11727945_x_at) / RFU KRTAP5-7 /// NADSYN1 (11734609_at) / Fold change /veh KRTAP5-7 /// NADSYN1 (11734609_at) / RFU RASL12 (11751679_a_at) / Fold change /veh RASL12 (11751679_a_at) / RFU CDKN2B (11736163_a_at) / Fold change /veh CDKN2B (11736163_a_at) / RFU PRF1 (11729649_at) / Fold change /veh PRF1 (11729649_at) / RFU, ZNF638 /// ZNF638-IT1 / Fold change vs veh, ZNF638 /// ZNF638-IT1 / RFU, PANK3 / Fold change vs veh, PANK3 / RFU, SH3YL1 / Fold change vs veh, SH3YL1 / RFU, ZEB2 / Fold change vs veh, ZEB2 / RFU, NRIP1 / Fold change vs veh, NRIP1 / RFU, PTTG1IP / Fold change vs veh, PTTG1IP / RFU, CAPN2 / Fold change vs veh, CAPN2 / RFU, MED14 / Fold change vs veh, MED14 / RFU, SNORA58 / Fold change vs veh, SNORA58 / RFU, C1orf63 / Fold change vs veh, C1orf63 / RFU, LRRFIP1 / Fold change vs veh, LRRFIP1 / RFU, NDUFAF7 / Fold change vs veh, NDUFAF7 / RFU, SLC12A2 / Fold change vs veh, SLC12A2 / RFU, IBTK / Fold change vs veh, IBTK / RFU, ESF1 / Fold change vs veh, ESF1 / Fold change vs veh, TMEM50B / RFU, TAOK1 / Fold change vs veh, TAOK1 / RFU, ACBD3 / Fold change vs veh, ACBD3 / RFU, TMA16 / Fold change vs veh, TMA16 / RFU, RWDD3 / Fold change vs veh, RWDD3 / RFU, BCAT1 / Fold change vs veh, BCAT1 / RFU, EDEM3 / Fold change vs veh, EDEM3 / RFU, TMEM33 / Fold change vs veh, TMEM33 / RFU, WDR75 / Fold change vs veh, WDR75 / RFU, AHCTF1 / Fold change vs veh, AHCTF1 / RFU, TFRC / Fold change vs veh, TFRC / RFU, ZDHHC17 / Fold change vs veh, ZDHHC17 / RFU, NOM1 / Fold change vs veh, NOM1 / RFU, ARL8B / Fold change vs veh, ARL8B / RFU, ZBTB11 / Fold change vs veh, ZBTB11 / RFU, TAMM41 / Fold change vs veh, TAMM41 / RFU, KIAA1704 /// LOC100996395 / Fold change vs veh, KIAA1704 /// LOC100996395 / RFU, ING1 / Fold change vs veh, ING1 / RFU, TRMT61B / Fold change vs veh, TRMT61B / RFU, FUBP3 / Fold change vs veh, FUBP3 / RFU, TP53 / Fold change vs veh, TP53 / RFU, TNKS2 / Fold change vs veh, TNKS2 / RFU, ZFP14 / Fold change vs veh, ZFP14 / RFU, ACTR2 / Fold change vs veh, ACTR2 / RFU, PPP3R1 / Fold change vs veh, PPP3R1 / RFU, PIK3R1 / Fold change vs veh, PIK3R1 / RFU, HNRNPA1 / Fold change vs veh, HNRNPA1 / RFU, RNF170 / Fold change vs veh, RNF170 / RFU, ZNF28 / Fold change vs veh, ZNF28 / RFU, RNGTT / Fold change vs veh, RNGTT / RFU, OGT / Fold change vs veh, OGT / RFU, BRD1 / Fold change vs veh, BRD1 / RFU, MARS / Fold change vs veh, MARS / RFU, ZNF655 / Fold change vs veh, ZNF655 / RFU, FAHD1 / Fold change vs veh, FAHD1 / RFU, BDP1 / Fold change vs veh, BDP1 / RFU, LRRCC1 / Fold change vs veh, LRRCC1 / RFU, ARID1A / Fold change vs veh, ARID1A / RFU, ZNF146 / Fold change vs veh, ZNF146 / RFU, ZNF330 / Fold change vs veh, ZNF330 / RFU, GPN3 / Fold change vs veh, GPN3 / RFU, C9orf123 / Fold change vs veh, C9orf123 / RFU, N4BP2L2 / Fold change vs veh, N4BP2L2 / RFU, ARFIP1 / Fold change vs veh, ARFIP1 / RFU, FAM179B / Fold change vs veh, FAM179B / RFU, BCL10 / Fold change vs veh, BCL10 / RFU, UHRF1BP1L / Fold change vs veh, UHRF1BP1L / RFU, BET1 / Fold change vs veh, BET1 / RFU, CNOT2 / Fold change vs veh, CNOT2 / RFU, ZNF268 / Fold change vs veh, ZNF268 / Fold change vs veh, ZNF507 / RFU, DGCR2 / Fold change vs veh, DGCR2 / RFU, WDSUB1 / Fold change vs veh, WDSUB1 / Fold change vs veh, HSP90B1 /// MIR3652 / RFU, ADSS / Fold change vs veh, ADSS / RFU, GK / Fold change vs veh, GK / RFU, ZNF148 / Fold change vs veh, ZNF148 / RFU, TAF9 / Fold change vs veh, TAF9 / RFU, SLC1A5 / Fold change vs veh, SLC1A5 / RFU, SLMO2 / Fold change vs veh, SLMO2 / RFU, ABCC4 / Fold change vs veh, ABCC4 / RFU, LOC101060439 /// RAP1B / Fold change vs veh, LOC101060439 /// RAP1B / RFU, RFX7 / Fold change vs veh, RFX7 / RFU, GTPBP10 / Fold change vs veh, GTPBP10 / RFU, CNEP1R1 / Fold change vs veh, CNEP1R1 / RFU, BIVM-ERCC5 /// ERCC5 / Fold change vs veh, BIVM-ERCC5 /// ERCC5 / RFU, ILF3 / Fold change vs veh, ILF3 / RFU 11762660_at / Fold change /veh 11762660_at / RFU VCAN (11757783_s_at) / Fold change /veh VCAN (11757783_s_at) / RFU DDX43 (11728927_at) / Fold change /veh DDX43 (11728927_at) / RFU KRT8 (11758188_x_at) / Fold change /veh KRT8 (11758188_x_at) / RFU NKD1 (11759106_at) / Fold change /veh NKD1 (11759106_at) / RFU SRD5A1 (11742802_a_at) / Fold change /veh SRD5A1 (11742802_a_at) / RFU TPSAB1 /// TPSB2 (11721975_s_at) / Fold change /veh TPSAB1 /// TPSB2 (11721975_s_at) / RFU GSTM3 (11746129_a_at) / Fold change /veh GSTM3 (11746129_a_at) / RFU IL23R (11737362_x_at) / Fold change /veh IL23R (11737362_x_at) / RFU TMEM51 (11727254_a_at) / Fold change /veh TMEM51 (11727254_a_at) / RFU PIWIL2 (11732686_x_at) / Fold change /veh PIWIL2 (11732686_x_at) / RFU ORM1 (11744905_x_at) / Fold change /veh ORM1 (11744905_x_at) / RFU CCDC152 (11743942_at) / Fold change /veh CCDC152 (11743942_at) / RFU ECM1 (11717891_a_at) / Fold change /veh ECM1 (11717891_a_at) / RFU IL23R (11748794_a_at) / Fold change /veh IL23R (11748794_a_at) / RFU TNFAIP8L3 (11732012_x_at) / Fold change /veh TNFAIP8L3 (11732012_x_at) / RFU MBOAT4 (11741988_at) / Fold change /veh MBOAT4 (11741988_at) / RFU 11764193_at / Fold change /veh 11764193_at / RFU TMEM53 (11763286_at) / Fold change /veh TMEM53 (11763286_at) / RFU MAGEB2 (11727129_at) / Fold change /veh MAGEB2 (11727129_at) / RFU TMEM200A (11744735_a_at) / Fold change /veh TMEM200A (11744735_a_at) / RFU CCDC152 (11751479_a_at) / Fold change /veh CCDC152 (11751479_a_at) / RFU FAM211A (11726209_a_at) / Fold change /veh FAM211A (11726209_a_at) / RFU RGS16 (11746705_a_at) / Fold change /veh RGS16 (11746705_a_at) / RFU VCAN (11755009_s_at) / Fold change /veh VCAN (11755009_s_at) / RFU RHOB (11743442_s_at) / Fold change /veh RHOB (11743442_s_at) / RFU RGS16 (11720943_a_at) / Fold change /veh RGS16 (11720943_a_at) / RFU RGS16 (11720944_at) / Fold change /veh RGS16 (11720944_at) / RFU, VPS4B / Fold change vs veh, VPS4B / RFU, CREB1 / Fold change vs veh, CREB1 / RFU, DNAJC13 / Fold change vs veh, DNAJC13 / RFU, GNAQ / Fold change vs veh, GNAQ / RFU, CDK5R1 / Fold change vs veh, CDK5R1 / RFU, ZRANB3 / Fold change vs veh, ZRANB3 / RFU, CUL4A / Fold change vs veh, CUL4A / RFU, CCNY / Fold change vs veh, CCNY / RFU, UFL1 / Fold change vs veh, UFL1 / RFU, COG3 / Fold change vs veh, COG3 / RFU, DIAPH2 / Fold change vs veh, DIAPH2 / RFU, SKA2 / Fold change vs veh, SKA2 / RFU, AFF3 / Fold change vs veh, AFF3 / RFU, LMF1 / Fold change vs veh, LMF1 / RFU, IPO11 / Fold change vs veh, IPO11 / RFU, DFFB / Fold change vs veh, DFFB / RFU, FOXP1 / Fold change vs veh, FOXP1 / RFU, CARD8 / Fold change vs veh, CARD8 / RFU, STRN3 / Fold change vs veh, STRN3 / RFU, ADK / Fold change vs veh, ADK / RFU, RASSF2 / Fold change vs veh, RASSF2 / RFU, WIPF1 / Fold change vs veh, WIPF1 / RFU, LARP1B / Fold change vs veh, LARP1B / RFU, RASA1 / Fold change vs veh, RASA1 / RFU, RB1 / Fold change vs veh, RB1 / RFU, PPFIA1 / Fold change vs veh, PPFIA1 / RFU, MAT2A / Fold change vs veh, MAT2A / RFU, CCT5 / Fold change vs veh, CCT5 / RFU, WDR92 / Fold change vs veh, WDR92 / RFU, CUX1 / Fold change vs veh, CUX1 / RFU, TTC7A / Fold change vs veh, TTC7A / RFU, TMEM135 / Fold change vs veh, TMEM135 / RFU, DEPTOR / Fold change vs veh, DEPTOR / RFU, CPM / Fold change vs veh, CPM / RFU, DNAJB6 / Fold change vs veh, DNAJB6 / RFU, CACNA2D3 / Fold change vs veh, CACNA2D3 / RFU, DTX4 / Fold change vs veh, DTX4 / RFU, TFCP2 / Fold change vs veh, TFCP2 / RFU, GMCL1 /// GMCL1P1 / Fold change vs veh, GMCL1 /// GMCL1P1 / RFU, AEBP2 / Fold change vs veh, AEBP2 / RFU, SNHG1 /// SNORD22 /// SNORD25 /// SNORD26 /// SNORD27 /// SNORD28 /// SNORD29 /// SNORD31 / Fold change vs veh, SNHG1 /// SNORD22 /// SNORD25 /// SNORD26 /// SNORD27 /// SNORD28 /// SNORD29 /// SNORD31 / Fold change (Aza/veh), C12orf56 (ProbeSet 11735607_a_at) / Fold change (ACY-1035/veh), C12orf56 (ProbeSet 11735607_a_at) / Fold change (Aza/veh), FGFR1OP (ProbeSet 11751329_s_at) / Fold change (ACY-1035/veh), FGFR1OP (ProbeSet 11751329_s_at) / Fold change (Aza/veh), VPS36 (ProbeSet 11739960_a_at) / Fold change (ACY-1035/veh), VPS36 (ProbeSet 11739960_a_at) / RFU SYPL1 (11715823_x_at) / Fold change /veh SYPL1 (11715823_x_at) / RFU IGFBP7 (11715501_s_at) / Fold change /veh IGFBP7 (11715501_s_at) / RFU REEP3 (11722064_at) / Fold change /veh REEP3 (11722064_at) / RFU IGLL1 (11728026_x_at) / Fold change /veh IGLL1 (11728026_x_at): dose or concentration left out as unconfirmed
Conditions: ProbeSet 11716331_a_at; LIST D

SMILES: Nc1ccc(-c2cccs2)cc1NC(=O)c1ccc2c(c1)cc(C1CC1)n2CCN1CCOCC1 [ACY-1035]
- RFU, DNAJB6: 348.58 RFU
